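Dose response: 5 concentrations. Exposure: 48 h. Format: 96-well plates. Endpoint: linear interpolation; highest concentration if not reached. TGI is the concentration that stops growth completely.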
What was measured:
Experiment in all cases: DTP human tumour cell line panel, 48 h
PC-3 prostate = tested on: PC-3 prostate
MCF7 breast = tested on: MCF7 breast
OVCAR-8 ovarian = tested on: OVCAR-8 ovarian
MALME-3M melanoma = tested on: MALME-3M melanoma
NCI-H460 lung = tested on: NCI-H460 lung
SK-MEL-28 melanoma = tested on: SK-MEL-28 melanoma
MOLT-4 leukemia = tested on: MOLT-4 leukemia
MDA-MB-435 = tested on: MDA-MB-435
SR leukemia = tested on: SR leukemia
HOP-62 NSCLC = tested on: HOP-62 NSCLC

Compound | TGI (PC-3 prostate) [µM] | TGI (MCF7 breast) [µM] | TGI (OVCAR-8 ovarian) [µM] | TGI (MALME-3M melanoma) [µM] | TGI (NCI-H460 lung) [µM] | TGI (SK-MEL-28 melanoma) [µM] | TGI (MOLT-4 leukemia) [µM] | TGI (MDA-MB-435) [µM] | TGI (SR leukemia) [µM] | TGI (HOP-62 NSCLC) [µM]
C=CCOC(=O)N1[C@H]2C#C/C=C\C#C[C@]3(O)C(=O)C[C@H](C)[C@]24O[C@]43C2=CC(=O)C=CC21OC (stereo not given in full) | > 100 | > 100 | 47.9 | > 100 | 47.8 | > 100 | 52.9 | > 100 | 29.9 | > 100
Cc1cccc(C(C)C)c1NC(=O)C(=O)CC(=O)c1sc(Nc2ccccc2Cl)nc1C | > 100 | > 100 |  | > 100 | 51.1 | > 100 | > 100 | 33.2 | > 100 | > 100
O=c1cc(NCCCCCO)[nH]c(=O)[nH]1 | > 100 | > 100 | > 100 | > 100 | > 100 | > 100 | > 100 | > 100 | > 100 | > 100
CCOC(=O)C1(C(N)=O)C(=O)c2ccncc2C1=O (stereo not given) | > 100 | > 100 | > 100 | > 100 | > 100 | > 100 |  | > 100 | > 100 | 
CN(C)c1ccc(/C=c2/c3ccccc3n3c2c2ccccc2[n+]3C)cc1 | 1.54 | 5.46 | 2.34 | 1.47 | > 38.2 | 2.08 | 2.67 | 1.87 | 1.98 | 16.2
COc1ccccc1/C=C/C1=NN(c2cccc(S(=O)(=O)O)c2)C2(C1)SCC(=O)N2c1nc2ccccc2s1 (stereo not given) | > 100 | > 100 | > 100 | > 100 | > 100 | > 100 | > 100 | > 100 | 87.9 | 
C=CCn1c(=O)c2ccccc2[n+]2c(C)c(C(=O)OCC)sc12 | > 100 | > 100 | > 100 |  | > 100 | > 100 | > 100 | > 100 | > 100 | > 100
O=c1c2cc(-c3ccccc3)sc2nc2n1N=C(c1ccccc1)CS2 | > 100 | 96.2 | > 100 | > 100 | > 100 | > 100 | > 100 | > 100 | > 100 | 23
COc1ccc(/C=C2\CCCC(CN(C)C)C2=O)cc1 (stereo not given) | 18.4 | 1.45 | 26.4 | 6.95 | 48.4 | 3.77 | 2.56 | 6.96 | 2.42 | 35.7
CC1CC(C)C(O)C(C2CC(CC(=O)NC3CCCCC3)CC(=O)O2)C1 (stereo not given) | > 100 | > 100 | > 100 | > 100 | > 100 | > 100 | > 100 | > 100 | > 100 | > 100
Cc1c(NC(=S)NN)c(=O)n(-c2ccccc2)n1C | > 100 | > 100 | > 100 | > 100 | > 100 | > 100 | > 100 | > 100 | > 100 | > 100

Source: PubChem BioAssay (NCI)
